Like-named read-outs stand apart in the source and are kept apart here.
Target: HPK1 (Homo sapiens, UniProt Q92918)
Assay: HPK1 Biochemical Assay (ADP-Glo luminescence; low ATP 10 μM or high ATP 200 μM)
Settings: read-out: Biochemical Potency (low ATP)
Procedure: Dose-response assays were performed in Corning® Low Volume 384-well assay plates containing 100 nL of 22 serial 2-fold compound dilutions. Wells containing DMSO alone were used as negative control. A kinase mixture (5 μL) containing 2 nM HPK1 (or 5 nM for high ATP assay) in assay buffer (50 mM Hepes pH 7.4, 10 mM MgCl2, 0.01% Brij-15, 0.01% bovine serum albumin, and 1 mM dithiothreitol) was added to the assay plates and incubated at 25° C. for 1 hour. Wells without HPK1 were used as positive control. A […] of 10 μM ATP (or 200 μM for high ATP) and 0.2 μg/μL […] was then added to the wells, resulting in a 10 μL total reaction volume. Following incubation of the assay plates at 25° C. for 1 hour, 10 μL of ADP-Glo reagent was added to the wells and the plates were incubated at 25° C. for a further 40 minutes (or 1 hour for high ATP assay). Finally, 20 μL of Kinase Detection Reagent was added, and the plates were incubated for another 30 minutes at 25° C. An Envision plate reader was then used to detect the luminescence signals. IC50 values were determined by fitting the data to a standard 4-parameter logistic equation. The results are summarized in the Biochemical Potency columns of Tables 4 and 5 below (Biochemical Potency (high ATP); Biochemical Potency (low ATP)).

Sequence of HPK1 (Q92918 whole entry, species assumed): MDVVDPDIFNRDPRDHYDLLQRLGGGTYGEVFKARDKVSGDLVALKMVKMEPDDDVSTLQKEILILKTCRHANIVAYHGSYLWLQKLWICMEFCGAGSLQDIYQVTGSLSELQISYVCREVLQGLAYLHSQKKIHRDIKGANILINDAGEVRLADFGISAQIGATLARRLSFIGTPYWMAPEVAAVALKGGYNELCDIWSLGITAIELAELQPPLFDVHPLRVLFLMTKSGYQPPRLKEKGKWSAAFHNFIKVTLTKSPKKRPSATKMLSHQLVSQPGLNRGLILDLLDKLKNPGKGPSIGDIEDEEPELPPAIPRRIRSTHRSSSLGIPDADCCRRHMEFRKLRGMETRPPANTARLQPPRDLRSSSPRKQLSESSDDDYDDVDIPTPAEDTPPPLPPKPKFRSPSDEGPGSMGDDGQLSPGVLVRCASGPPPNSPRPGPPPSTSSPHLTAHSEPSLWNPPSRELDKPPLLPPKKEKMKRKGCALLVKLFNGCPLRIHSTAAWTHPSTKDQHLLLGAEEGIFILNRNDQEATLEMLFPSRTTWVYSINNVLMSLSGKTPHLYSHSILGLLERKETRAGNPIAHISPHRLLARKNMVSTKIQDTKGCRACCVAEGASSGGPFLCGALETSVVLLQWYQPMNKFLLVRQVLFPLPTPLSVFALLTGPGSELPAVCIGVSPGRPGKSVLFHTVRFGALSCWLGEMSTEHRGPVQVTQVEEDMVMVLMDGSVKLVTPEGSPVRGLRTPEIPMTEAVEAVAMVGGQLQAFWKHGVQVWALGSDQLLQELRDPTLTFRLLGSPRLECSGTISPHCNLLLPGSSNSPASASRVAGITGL

Row | SMILES | IC50 (HPK1 ADP-Glo assay, low ATP (10 μM ATP, 2 nM HPK1)) [nM] | IC50 (2 nM HPK1, 10 μM ATP) [nM]
1 | Cc1cccnc1-c1nc2cc(Nc3cc(C4CCNC4)nc(N4CCC(F)(F)C4)n3)ncc2s1 (stereo not drawn) [Example 319, [2-(3,3-difluoro-1-pyrrolidinyl)-6-(3-pyrrolidinyl)-4-pyrimidinyl][2-(3-methyl-2-pyridyl)-3-thia-1,5-diaza-6-indenyl]amine] | 100 to 1000 | –
2 | CNS(=O)(=O)c1cccc(-c2nc3cc(Nc4cccc(N5C[C@@H]6C[C@H]5CN6)n4)ncc3s2)c1 [Example 292, 3-[6-({6-[(1S,4S)-2,5-diazabicyclo[2.2.1]heptan-2-yl]pyridin-2-yl}amino)-[1,3]thiazolo[5,4-c]pyridin-2-yl]-N-methylbenzene-1-sulfonamide] | – | < 100
3 | Cc1ccc(Nc2cc3nc(-n4nccc4C)sc3cn2)nc1N1CCNCC1 [Example 204, 5-Methyl-N-[2-(5-methyl-1H-pyrazol-1-yl)-[1,3]thiazolo[5,4-c]pyridin-6-yl]-6-(piperazin-1-yl)pyridin-2-amine] | – | < 100
4 | Cc1cccnc1-c1nc2cc(Nc3nccc(N4C[C@@H](N)C[C@H]4CO)n3)ncc2s1 [Example 242, [(2S,4S)-4-amino-1-(2-{[2-(3-Methylpyridin-2-yl)-[1,3]thiazolo[5,4-c]pyridin-6-yl]amino}pyrimidin-4-yl)pyrrolidin-2-yl]methanol] | – | 100 to 1000
5 | C[C@H]1CCC(=O)N1c1nc2cc(Nc3ccc(C4CCOCC4)c(CN4CCCC4)n3)ncc2s1 [Example 208, (5S)-5-Methyl-1-(6-{[5-(oxan-4-yl)-6-[(pyrrolidin-1-yl)methyl]pyridin-2-yl]amino}-[1,3]thiazolo[5,4-c]pyridin-2-yl)pyrrolidin-2-one] | – | < 100
6 | CN1C[C@@H]2C[C@H]1CN2c1ccnc(Nc2cc3nc(-c4cccc(S(C)(=O)=O)c4)sc3cn2)n1 [Example 244, N-[2-(3-Methanesulfonylphenyl)-[1,3]thiazolo[5,4-c]pyridin-6-yl]-4-[(1S,4S)-5-methyl-2,5-diazabicyclo[2.2.1]heptan-2-yl]pyrimidin-2-amine] | – | 100 to 1000
7 | CN1C[C@@H]2C[C@H]1CN2c1nccc(Nc2cc3nc(-c4cccc(C(=O)N5CCCC5)c4)sc3cn2)n1 [Example 126, 2-[(1S,4S)-5-Methyl-2,5-diazabicyclo[2.2.1]heptan-2-yl]-N-{2-[3-(pyrrolidine-1-carbonyl)phenyl]-[1,3]thiazolo[5,4-c]pyridin-6-yl}pyrimidin-4-amine] | – | < 100
8 | CN1C[C@@H]2C[C@H]1CN2c1ccnc(Nc2cc3nc(-c4cccc(C(=O)N5CCCC5)c4)sc3cn2)n1 [Example 245, 4-[(1S,4S)-5-Methyl-2,5-diazabicyclo[2.2.1]heptan-2-yl]-N-{2-[3-(pyrrolidine-1-carbonyl)phenyl]-[1,3]thiazolo[5,4-c]pyridin-6-yl}pyrimidin-2-amine] | – | 100 to 1000
9 | c1cc(-c2nc3cc(Nc4ccc(C5CCOCC5)c(CN5CCOCC5)n4)ncc3s2)ccn1 [Example 219, 6-[(Morpholin-4-yl)methyl]-5-(oxan-4-yl)-N-[2-(pyridin-4-yl)-[1,3]thiazolo[5,4-c]pyridin-6-yl]pyridin-2-amine] | – | < 100
10 | c1cc(C2CCOCC2)c(CN2CCCC2)nc1Nc1cc2nc(N3CCCC3)sc2cn1 [Example 231, 5-(Oxan-4-yl)-N-[2-(pyrrolidin-1-yl)-[1,3]thiazolo[5,4-c]pyridin-6-yl]-6-[(pyrrolidin-1-yl)methyl]pyridin-2-amine] | – | 100 to 1000
11 | Cc1ccc(Nc2cc3nc(-c4cnn(C(F)(F)F)c4)sc3cn2)nc1CN1CCCC1 [Example 36, 5-Methyl-6-[(pyrrolidin-1-yl)methyl]-N-{2-[1-(trifluoromethyl)-1H-pyrazol-4-yl]-[1,3]thiazolo[5,4-c]pyridin-6-yl}pyridin-2-amine] | – | 100 to 1000
12 | Cc1cc(Nc2cc3nc(-c4nccn4C)sc3cn2)nc(O[C@H]2CCNC2)c1 [Example 183, 4-Methyl-N-[2-(1-methyl-1H-imidazol-2-yl)-[1,3]thiazolo[5,4-c]pyridin-6-yl]-6-[(3S)-pyrrolidin-3-yloxy]pyridin-2-amine] | – | < 100

Source: patent US12649751B2 (Arcus Biosciences, Inc., priority 2022, dated 2026)
